Legend:
C2C12 myoblasts cells = details: at the effective concentration (0.5-5 μM)
Description: After four days of treatment with reversine, the compound was removed and cells were then grown in osteogenic differentiation medium (ODM) or adipogenic differentiation medium (ADM).

C2C12 myoblast cells = details: day four of compound treatment

`c1nc2nc(Nc3ccc(N4CCOCC4)cc3)nc(NC3CCCCC3)c2[nH]1` [Compound A, 2-(4-Morpholinoanilino)-6-cyclohexylamino-purine] was tested. Which cell death (C2C12 myoblasts cells) did it give?
The cell death was “no significant cell death”.

And the myotube formation (C2C12 myoblast cells; 5 μM)?
Its myotube formation is “completely inhibited”.

And the “myogenic specific markers such as MyoD and myosin” value (C2C12 myoblast cells)?
The value was “began to disappear”.

— patent publication US7951592B2, “Compositions and methods for inducing cell dedifferentiation” (The Scripps Research Institute, priority 2003, dated 2011)
